Laboratory results taken from patent publication US10703740B2, “Substituted benzimidazoles, their preparation and their use as pharmaceuticals” (NEOMED Institute, priority 2015, dated 2020).

Test system: human C-Myc transcription in MV-4-11 cells
Assay: Transcription of human C-Myc in human leukemic MV-4-11 cells (QuantiGene 2.0)
Type: cell-based
Conditions: Homo sapiens, MV4-11, 4 h, inhibition of C-Myc mRNA, 4 hours treatment, read-out: IC50 MV-4-11 Cell
Method: The effect of compounds on transcription of human C-Myc gene is monitored in human B-myelomonocytic leukemia cell line MV-4-11 (from American Type Culture Collection (ATCC), Manassas, Va., USA) using QuantiGene 2.0 assay kit (Affymetrix, Santa Clara, Calif., USA).
Typically, 8,000 MV-4-11 cells are plated in sterile 96-well plates (Costar #3598 from Fisher Scientific Canada, Ottawa, Ontario, Canada) in Iscove's medium supplemented with 10% fetal bovine serum, glutamine (2 mM), and penicillin (100 I.U.) and streptomycin (100 μg/mL) (all from Wisent Inc., St. Bruno, Quebec, Canada). Compounds are dissolved in DMSO at 30 mM. A series of 1:3 dilutions are first made in DMSO, and further 1:100 dilutions are made in serum-containing cell culture media. The final concentration of DMSO is 0.1% in cell culture media. After cells are treated with various concentrations of test compound for 4 hours, cells are lysed using Quantigene 2.0 sample processing kit (# QS0100). C-Myc mRNA is detected using a QuantiGene 2.0 assay kit (# QS0009) with gene-specific probe to human C-Myc (# SA-50182) following the manufacturer's recommendations. Luminescene signals are read on Flexstation II microplate reader (Molecular Devices, Sunnyvale, Calif., USA).

In order of rising IC50:
1. CCOCCn1c(C2CCOCC2)nc2ccc(-c3cc(C)c(=O)n(C)c3)cc21 [Compound 60, 5-(1-(2-ethoxyethyl)-2-(tetrahydro-2H-pyran-4-yl)-1H-benzo[d]imidazol-6-yl)-1,3-dimethylpyridin-2(1H)-one]  17 nM
2. Cc1cc(-c2ccc3nc(C4CCOCC4)n([C@H](C)COC(C)C)c3c2)cn(C)c1=O [Compound 66, (R)-5-(1-(1-isopropoxypropan-2-yl)-2-(tetrahydro-2H-pyran-4-yl)-1H-benzo[d]imidazol-6-yl)-1,3-dimethylpyridin-2(1H)-one]  18 nM
3. Cc1cc(-c2ccc3nc(C4(C)CCOCC4)n(CCOC(F)(F)F)c3c2)cn(C)c1=O [Compound 31, 1,3-dimethyl-5-(2-(4-methyltetrahydro-2H-pyran-4-yl)-1-(2-(trifluoromethoxy)ethyl)-1H-benzo[d]imidazol-6-yl)pyridin-2(1H)-one]  24 nM
4. CCOC[C@@H](C)n1c(C2CCOCC2)nc2ccc(-c3cc(C)c(=O)n(C)c3)cc21 [Compound 47, (R)-5-(1-(1-ethoxypropan-2-yl)-2-(tetrahydro-2H-pyran-4-yl)-1H-benzo[d]imidazol-6-yl)-1,3-dimethylpyridin-2(1H)-one]  27 nM
5. CO[C@H]1C[C@@H](c2nc3ccc(-c4cc(C)c(=O)n(C)c4)cc3n2CCOC(F)(F)F)C1 [Compound 28b]  50 nM
6. CO[C@H]1C[C@H](c2nc3ccc(-c4cc(C)c(=O)n(C)c4)cc3n2CCOC(F)(F)F)C1 [Compound 28a]  50 nM
7. CCOC[C@@H](C)n1c(C2CC(F)(F)C2)nc2ccc(-c3cc(C)c(=O)n(C)c3)cc21 [Compound 52, (R)-5-(2-(3,3-difluorocyclobutyl)-1-(1-ethoxypropan-2-yl)-1H-benzo[d]imidazol-6-yl)-1,3-dimethylpyridin-2(1H)-one]  51 nM
8. Cn1cc(-c2ccc3nc(C4CCOCC4)n(CCOC(F)(F)F)c3c2)cc(Cl)c1=O [Compound 36, 3-chloro-1-methyl-5-[2-tetrahydropyran-4-yl-3-[2-(trifluoromethoxy)ethyl]benzimidazol-5-yl]pyridin-2-one]  53 nM
9. COC[C@@H](C)n1c(C2CC(F)(F)C2)nc2ccc(-c3cc(C)c(=O)n(C)c3)cc21 [Compound 51, (R)-5-(2-(3,3-difluorocyclobutyl)-1-(1-methoxypropan-2-yl)-1H-benzo[d]imidazol-6-yl)-1,3-dimethylpyridin-2(1H)-one]  62 nM
10. COC[C@@H](C)n1c(C2CCC(F)(F)CC2)nc2ccc(-c3cc(C)c(=O)n(C)c3)cc21 [Compound 57, (R)-5-(2-(4,4-difluorocyclohexyl)-1-(1-methoxypropan-2-yl)-1H-benzo[d]imidazol-6-yl)-1,3-dimethylpyridin-2(1H)-one]  72 nM
11. CCO[C@@H](C)Cn1c(C2CC(F)(F)C2)nc2ccc(-c3cc(C)c(=O)n(C)c3)cc21 [Compound 53, (S)-5-(2-(3,3-difluorocyclobutyl)-1-(2-ethoxypropyl)-1H-benzo[d]imidazol-6-yl)-1,3-dimethylpyridin-2(1H)-one]  76 nM
12. Cc1cc(-c2ccc3nc([C@@H]4CCCO4)n(CCOC(F)(F)F)c3c2)cn(C)c1=O (stereo in doubt) [Compound 30b, 1,3-dimethyl-5-[2-tetrahydrofuran-2-yl-3-[2-(trifluoromethoxy)ethyl]benzimidazol-5-yl]pyridin-2-one]  87 nM
13. CO[C@@H](C)Cn1c(C2CCC(F)(F)CC2)nc2ccc(-c3cc(C)c(=O)n(C)c3)cc21 [Compound 59, (S)-5-(2-(4,4-difluorocyclohexyl)-1-(2-methoxypropyl)-1H-benzo[d]imidazol-6-yl)-1,3-dimethylpyridin-2(1H)-one]  90 nM
14. COCCn1c(C2CCC(F)(F)CC2)nc2ccc(-c3cc(C)c(=O)n(C)c3)cc21 [Compound 44, 5-(2-(4,4-difluorocyclohexyl)-1-(2-methoxyethyl)-1H-benzo[d]imidazol-6-yl)-1,3-dimethylpyridin-2(1H)-one]  98 nM
15. Cc1cc(-c2ccc3nc(C4CC4)n(CCOCC(F)(F)F)c3c2)cn(C)c1=O [Compound 45, 5-(2-cyclopropyl-1-(2-(2,2,2-trifluoroethoxy)ethyl)-1H-benzo[d]imidazol-6-yl)-1,3-dimethylpyridin-2(1H)-one]  160 nM
16. COC[C@H](C)n1c(C2CCOCC2)nc2ccc(-c3cc(C)c(=O)n(C)c3)cc21 [Compound 18, 5-[3-[(1S)-2-methoxy-1-methylethyl]-2-tetrahydropyran-4-yl-benzimidazol-5-yl]-1,3-dimethylpyridin-2-one]  170 nM
17. COCCn1c(CC2CCOCC2)nc2ccc(-c3cc(C)c(=O)n(C)c3)cc21 [Compound 42, 5-(1-(2-methoxyethyl)-2-((tetrahydro-2H-pyran-4-yl)methyl)-1H-benzo[d]imidazol-6-yl)-1,3-dimethylpyridin-2(1H)-one]  170 nM
18. Cc1cc(-c2ccc3nc([C@H]4CCCO4)n(CCOC(F)(F)F)c3c2)cn(C)c1=O (stereo in doubt) [Compound 30a, 1,3-dimethyl-5-[2-tetrahydrofuran-2-yl-3-[2-(trifluoromethoxy)ethyl]benzimidazol-5-yl]pyridin-2-one]  200 nM
19. Cc1cc(-c2ccc3nc(C4CCOCC4)n(CCC(F)(F)F)c3c2)cn(C)c1=O [Compound 34, 1,3-dimethyl-5-[2-tetrahydropyran-4-yl-3-(3,3,3-trifluoropropyl)benzimidazol-5-yl]pyridin-2-one]  220 nM
20. Cc1cc(-c2ccc3nc(C4CCOCC4)n(CC(C)C(F)(F)F)c3c2)cn(C)c1=O (centres unmarked) [Compound 46a, 1,3-dimethyl-5-(2-(tetrahydro-2H-pyran-4-yl)-1-(3,3,3-trifluoro-2-methylpropyl)-1H-benzo[d]imidazol-6-yl)pyridin-2(1H)-one]  220 nM
21. COCCn1c(C2CCCCC2)nc2ccc(-c3cc(C)c(=O)n(C)c3)cc21 [Compound 38, 5-(2-cyclohexyl-1-(2-methoxyethyl)-1H-benzo[d]imidazol-6-yl)-1,3-dimethylpyridin-2(1H)-one]  240 nM
22. CNc1cc(-c2ccc3nc(C4CC4)n(CCOC(F)(F)F)c3c2)cn(C)c1=O [Compound 20, 5-[2-cyclopropyl-3-[2-(trifluoromethoxy)ethyl]benzimidazol-5-yl]-1-methyl-3-(methylamino)pyridin-2-one]  240 nM
23. CCOC[C@H](C)n1c(C2CCOCC2)nc2ccc(-c3cc(C)c(=O)n(C)c3)cc21 [Compound 48, (S)-5-(1-(1-ethoxypropan-2-yl)-2-(tetrahydro-2H-pyran-4-yl)-1H-benzo[d]imidazol-6-yl)-1,3-dimethylpyridin-2(1H)-one]  260 nM
24. COCCn1c(Cc2ccccc2)nc2ccc(-c3cc(C)c(=O)n(C)c3)cc21 [Compound 37, 5-(2-benzyl-1-(2-methoxyethyl)-1H-benzo[d]imidazol-6-yl)-1,3-dimethylpyridin-2(1H)-one]  490 nM
25. COC(C)Cn1c(C)nc2ccc(-c3cc(C)c(=O)n(C)c3)cc21 (centres unmarked) [Compound 21a, 5-[3-(2-methoxypropyl)-2-methylbenzimidazol-5-yl]-1,3-dimethylpyridin-2-one]  510 nM
26. Cn1cc(-c2ccc3nc(C4CC4)n(CCOC(F)(F)F)c3c2)cc(C2CC2)c1=O [Compound 19, 3-cyclopropyl-5-[2-cyclopropyl-3-[2-(trifluoromethoxy)ethyl]benzimidazol-5-yl]-1-methylpyridin-2-one]  870 nM

Same assay, conditions: inhibition of C-Myc mRNA, 4 hours treatment, read-out: IC50 MV-4-11 Cell

In order of falling IC50:
1. Cc1cc(-c2ccc3nc(C4CCOCC4)n(CC(C)C(F)(F)F)c3c2)cn(C)c1=O (centres unmarked) [Compound 46b, 1,3-dimethyl-5-(2-(tetrahydro-2H-pyran-4-yl)-1-(3,3,3-trifluoro-2-methylpropyl)-1H-benzo[d]imidazol-6-yl)pyridin-2(1H)-one]  250 nM
2. COC(C)Cn1c(C2CCOCC2)nc2ccc(-c3cc(C)c(=O)n(C)c3)cc21 (single isomer, unassigned) [Compound 35a, 5-[3-(2-methoxypropyl)-2-tetrahydropyran-4-yl-benzimidazol-5-yl]-1,3-dimethyl pyridin-2-one]  180 nM
3. COC(C)Cn1c(C2CCOCC2)nc2ccc(-c3cc(C)c(=O)n(C)c3)cc21 (single isomer, unassigned) [Compound 35b, 5-[3-(2-methoxypropyl)-2-tetrahydropyran-4-yl-benzimidazol-5-yl]-1,3-dimethyl pyridin-2-one]  86 nM
4. Cc1cc(-c2ccc3nc(C4CCOC4)n(CCOC(F)(F)F)c3c2)cn(C)c1=O (single isomer, unassigned) [Compound 29b, 1,3-dimethyl-5-[2-tetrahydrofuran-3-yl-3-[2-(trifluoromethoxy)ethyl]benzimidazol-5-yl]pyridin-2-one]  77 nM
5. COC1CC(c2nc3ccc(-c4cc(C)c(=O)n(C)c4)cc3n2CCOC(C)C)C1 (centres unmarked) [Compound 64, 5-[1-(2-isopropoxyethyl)-2-(3-methoxycyclobutyl)-1H-benzo[d]imidazol-6-yl]-1,3-dimethylpyridin-2(1H)-one]  51 nM
6. COC1CC(c2nc3ccc(-c4cc(C)c(=O)n(C)c4)cc3n2CCOC(C)C)C1 (centres unmarked) [Compound 65, 5-[1-(2-isopropoxyethyl)-2-(3-methoxycyclobutyl)-1H-benzo[d]imidazol-6-yl]-1,3-dimethylpyridin-2(1H)-one]  25 nM
